Experimental data reported in ChEMBL document CHEMBL1156435, “Evidence for the involvement of carbon-centered radicals in the induction of apoptotic cell death by artemisinin compounds” (J Biol Chem, 2007).
pIC50: −log10 of the molar value. Activity calls are given as the source filed them. The calls are words filed in the database; no cut-off is given here.

Tests used:
HL-60 [1] = experiment: Induction of apoptosis in human HL60 cells assessed as mitochondrial membrane depolarization at 1.0 uM after 24 hrs by flow cytometry; type: functional
HL-60 [2] = experiment: Cytotoxicity against human HL60 cells after 6 hrs by MTT assay; type: functional, cell-based; details: HL-60, 6 h
PBMC [3] = experiment: Cytotoxicity against human PBMC after 72 hrs by MTT assay; type: cell-based
HL-60 [4] = experiment: Induction of apoptosis in human HL60 cells assessed as pyknotic nuclear fragments at 10 uM after 24 hrs in presence of Z-VAD-fmk; type: functional, cell-based
HL-60 [5] = experiment: Cytotoxicity against human HL60 cells after 24 hrs by MTT assay; type: functional, cell-based; details: HL-60, 24 h
HL-60 [6] = experiment: Induction of apoptosis in human HL60 cells assessed as mitochondrial membrane depolarization at 1.0 uM after 12 hrs by flow cytometry; type: functional
PBMC [7] = experiment: Induction of apoptosis in human PBMC assessed as mitochondrial membrane depolarization at 0.1 to 100 uM after 24 hrs; type: functional, cell-based
HL-60 [8] = experiment: Cytotoxicity against human HL60 cells after 16 hrs by MTT assay; type: functional, cell-based; details: HL-60, 16 h
HL-60 [9] = experiment: Induction of apoptosis in human HL60 cells assessed as pyknotic nuclear fragments at 10 uM after 24 hrs; type: functional, cell-based
Jurkat = experiment: Cytotoxicity against human Jurkat cells after 72 hrs by MTT assay; type: functional, cell-based
HL-60 [10] = experiment: Cytotoxicity against human HL60 cells assessed as LDH release after 72 hrs; type: functional, cell-based; details: HL-60, 72 h
HL-60 [11] = experiment: Induction of apoptosis in human HL60 cells assessed as increase in sub-G0/G1 population at 1 uM after 16 hrs by flow cytometry; type: functional
HL-60 [12] = experiment: Induction of apoptosis in human HL60 cells assessed as increase in sub-G0/G1 population at 1 uM after 24 hrs by flow cytometry; type: functional
HL-60 [13] = experiment: Cytotoxicity against human HL60 cells after 72 hrs by MTT assay; type: functional, cell-based; details: HL-60, 72 h
[14] = Stability in human HL60 cells assessed as percentage drug remaining at 10 uM after 24 hrs; type: ADME, cell-based; details: HL-60 cells, read-out: Activity
HL-60 [15] = experiment: Stability in human HL60 cells assessed as formation of 10-beta-(p-bromophenoxy)-dihydroartemisinin tetrahydrofuran acetate at 10 uM after 24 hrs; type: ADME, cell-based; details: hl-60, 24 h
[16] = Stability in human PBMC assessed as percentage drug remaining at 10 uM after 24 hrs; type: ADME, cell-based; details: read-out: Activity
[17] = Stability in human HL60 cells assessed as percentage drug remaining at 10 uM after 16 hrs; type: ADME, cell-based; details: HL-60 cells, read-out: Activity
HL-60 [18] = experiment: Induction of apoptosis in human HL60 cells assessed as activation of caspase 3 by Western blotting; type: functional, cell-based
HL-60 [19] = experiment: Induction of apoptosis in human HL60 cells assessed as activation of caspase 7 by Western blotting; type: functional, cell-based
HL-60 [20] = experiment: Induction of apoptosis in human HL60 cells assessed as mitochondrial membrane depolarization at 10 uM after 24 hrs by flow cytometry in presence of Z-VAD-fmk; type: functional, cell-based
HL-60 [21] = experiment: Reversal of induction of apoptosis in human HL60 cells assessed as formation of sub-G0/G1 population at 10 uM after 24 hrs by flow cytometry in presence of Z-VAD-fmk; type: functional, cell-based
HL-60 [22] = experiment: Reversal of induction of apoptosis in human HL60 cells assessed as inhibition of caspase 3 activation at 1 uM after 24 hrs by Western blotting in presence of Z-VAD-fmk; type: functional, cell-based

SMILES	pIC50 (HL-60 [2])	pIC50 (PBMC [3])	Activity (HL-60 [4])	pIC50 (HL-60 [5])	pIC50 (HL-60 [8])	Activity (HL-60 [9])	pIC50 (Jurkat)	pIC50 (HL-60 [10])	Activity (HL-60 [12])	pIC50 (HL-60 [13])	other results
C[C@H]1[C@@H](Oc2ccc(F)cc2)O[C@@H]2O[C@]3(C)CC[C@H]4[C@H](C)CC[C@@H]1[C@@]24OO3	< 4.00	< 3.60	inactive	6.29	5.22	Active	6.64	6.12	62.9%	6.27	Activity (HL-60 [1]): 29.8%; Activity (HL-60 [6]): 65.8%; Activity (PBMC [7]): inactive; Activity (HL-60 [11]): 24.3%
C[C@H]1[C@@H](Oc2ccc(Br)cc2)O[C@@H]2O[C@]3(C)CC[C@H]4[C@H](C)CC[C@@H]1[C@@]24OO3		< 3.60					6.47	6.14	60%	6.92	remaining at 24 h, 10 µM [14]: 19%; Activity (HL-60 [15]): 7%; remaining at 24 h, 10 µM [16]: 64%; remaining at 16 h, 10 µM [17]: 37%
C[C@H]1[C@@H](Oc2ccc(F)cc2)O[C@@H]2O[C@]3(C)CC[C@H]4[C@H](C)CC[C@@H]1[C@@]24O3	< 4.00	< 3.60		6.34	5.42		4.51	4.49		4.59	Activity (HL-60 [18]): inactive; Activity (HL-60 [19]): inactive
COc1cccc2c1C(=O)c1c(O)c3c(c(O)c1C2=O)C[C@@](O)(C(=O)CO)C[C@@H]3O[C@H]1C[C@H](N)[C@H](O)[C@H](C)O1 [DOXORUBICIN]							7.05				
C[C@H]1[C@@H](O)O[C@@H]2O[C@@]3(C)CC[C@H]4[C@H](C)CC[C@@H]1[C@@]24OO3 [ARTENIMOL]		< 3.60	inactive			Active	6.19	5.81	60%		Activity (HL-60 [20]): Active; Activity (HL-60 [21]): Active; Activity (HL-60 [22]): Active
